Reference: patent US10961258B2, “Heterocyclic amides as kinase inhibitors” (GLAXOSMITHKLINE INTELLECTUAL PROPERTY DEVELOPMENT LIMITED, priority 2015, dated 2021)

What was measured:
GST-RipK1(1-375) = target: T1, GST-RipK1(1-375) (Homo sapiens, UniProt Q13546); experiment: Fluorescent polarization based binding assay at the ATP binding pocket of RIP1; conditions: FP competition with fluorescently labeled ATP competitive ligand 5 nM; GST-RipK1(1-375) 10 nM; mean of minimum 2 experiments
T1 construct: GST-RipK1 Preparation: His.GST.TEV.RIPK1 1-375; His (N); TEV cleavage site (N); made in house; host or cells: Spodoptera frugiperda (Sf9) insect cells, baculovirus
T1 sequence (Q13546 1-375): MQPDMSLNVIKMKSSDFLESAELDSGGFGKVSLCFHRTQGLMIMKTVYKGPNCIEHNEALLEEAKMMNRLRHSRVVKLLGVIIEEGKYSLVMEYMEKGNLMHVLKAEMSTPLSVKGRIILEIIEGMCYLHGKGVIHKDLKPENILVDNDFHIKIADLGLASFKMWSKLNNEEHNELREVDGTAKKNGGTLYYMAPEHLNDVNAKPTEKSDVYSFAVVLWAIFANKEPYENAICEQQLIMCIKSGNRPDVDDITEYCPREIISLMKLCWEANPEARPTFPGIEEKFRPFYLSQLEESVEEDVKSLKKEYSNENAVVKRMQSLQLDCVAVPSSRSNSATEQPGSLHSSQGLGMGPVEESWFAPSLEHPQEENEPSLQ
Description: A fluorescent polarization based binding assay was developed to quantitate
interaction of novel test compounds at the ATP binding pocket of RIP 1, by competition with a fluorescently labeled ATP competitive ligand. GST-RipK1(1-375) was purified from a Baculovirus expression system and was used at a final assay concentration of 10 nM. A fluorescent labeled ligand (14-(2-{[3-({2-{[4-(cyanomethyl)phenyl]amino}-6-[(5-20 cyclopropyl-1H-pyrazol-3-yl)amino]-4-pyrimidinyl}amino)propyl]amino}-2-oxoethyl)16,16,18,18-tetramethyl-6,7,7a,8a,9,10,16,18-octahydrobenzo[2″,3″ ]indolizino[8″,7″:5′,6′]pyrano[3′,2′:3,4]pyrido[1,2-a]indol-5-ium-2-sulfonate (prepared as described in WO2014125444, the disclosure of which is incorporated by reference herein) was used at a final assay concentration of 5 nM. Both the enzyme and ligand were prepared in solutions in 50 mM HEPES pH7.5, 10 mM 25 NaCl, 50 mM MgCl2, 0.5 mM DTT, and 0.02% CHAPS. Test compounds were prepared in neat DMSO and 100 nL was dispensed to individual wells of a multiwell plate. Next, 5 ul GST-RipK1(1-375) was added to the test compounds at twice the final assay concentration, and incubated at room temperature for 10 minutes. Following the incubation, 5 ul of the fluorescent labeled ligand solution, was added to each reaction, at twice the final assay concentration, and incubated at room temperature for at least 15 minutes. Finally, samples were read on an instrument capable of measuring fluorescent polarization. Test compound inhibition was expressed as percent (%) inhibition of internal assay controls. For concentration response experiments, normalized data were fit and pIC50s determined using conventional techniques. The pIC50s are averaged to determine a mean value, for a minimum of 2 experiments.
The RIPK 1 gene [receptor (TNFRSF)-interacting serine-threonine kinase 1] was cloned from human adrenal gland cDNA. Primers were designed from the reference sequence NM_003804.3 with an added CACC Kozak directional tag for cloning into pENTR/TEV/D-TOPO. Gateway® LR cloning was used to site-specifically recombine RIPK1 downstream to an N-terminal HisGST contained within the destination vector pDEST8-His.GST according to the protocol described by Invitrogen.

[1] = test system: human monocytic leukemia U937 cells; experiment: U937 necroptosis assay (TNFα + QVD, Cell Titer-Glo viability); type: cell-based; conditions: U-937, QVD 50 uM, TNFα 100 ng/ml overnight, cellular ATP by Cell Titer-Glo
Description: The efficacy of RIP1 inhibitors can be tested […] in vitro using a human monocytic leukemia U937 cells in a necroptosis assay (He, S. et al. 2009. Cell 137(6): 1100-1111). Cells were maintained in RPMI supplemented with 10% fetal bovine serum 100 U/ml penicillin, 100 ug/ml streptomycin. For the assay, cells were suspended at 5e5 cells/ml in phenol red free RPMI supplemented with 1% fetal bovine serum, 100 U/ml penicillin, 100 ug/ml streptomycin. Thirty-five (35) ul of the cell suspension was aliquotted into a white, half area assay plate. Five (5) ul each of QVD (final concentration 50 uM) or compound was added to the cells and incubated at 37° C. for 30 min to 1 h. Following the incubation, 5 ul TNFα (final concentration 100 ng/ml) was added to the cells and the samples were incubated overnight. The next day, cellular levels of ATP was determined using the Cell Titer-Glo Luminescent Cell Viability kit (available from Promega Corporation, Madison, Wis., USA). Viability was measured by quantitating cellular levels of ATP using the Cell Titer-Glo kit. All data are shown as means±standard deviation of the mean.

| IC50 (GST-RipK1(1-375)) | SMILES | IC50 [1] |
| --- | --- | --- |
| 251 nM | O=C(NC1CCc2sccc2NC1=O)c1nnc(Cc2ccccc2)[nH]1 (stereo not shown) [Example 2, 5-Benzyl-N-(5-oxo-5,6,7,8-tetrahydro-4H-thieno[3,2-b]azepin-6-yl)-4H-1,2,4-triazole-3-carboxamide] | 794 nM |
| 631 nM | Cc1cn(C)c2c1NC(=O)C(NC(=O)c1nnc(Cc3ccccc3)[nH]1)CC2 (stereo not shown) [Example 5, 5-Benzyl-N-(1,3-dimethyl-5-oxo-1,4,5,6,7,8-hexahydropyrrolo[3,2-b]azepin-6-yl)-4H-1,2,4-triazole-3-carboxamide] | > 10000 nM |
| 79.4 nM | Cc1cc2c(s1)CCC(NC(=O)c1nnc(Cc3ccccc3)[nH]1)C(=O)N2 (stereo not shown) [Example 3, 5-Benzyl-N-(2-methyl-5-oxo-5,6,7,8-tetrahydro-4H-thieno[3,2-b]azepin-6-yl)-4H-1,2,4-triazole-3-carboxamide] | 631 nM |
| 100 nM | Cc1sc(C)c2c1CCC(NC(=O)c1nnc(Cc3ccccc3)[nH]1)C(=O)N2 (stereo not shown) [Example 1, 5-Benzyl-N-(6,8-dimethyl-2-oxo-2,3,4,5-tetra hydro-1H-thieno[3,4-b]azepin-3-yl)-4H-1,2,4-triazole-3-carboxamide] | 398 nM |
| 794 nM | Cn1ccc2c1CCC(NC(=O)c1nnc(Cc3ccccc3)[nH]1)C(=O)N2 (stereo not shown) [Example 4, 5-Benzyl-N-(1-methyl-5-oxo-1,4,5,6,7,8-hexahydropyrrolo[3,2-b]azepin-6-yl)-4H-1,2,4-triazole-3-carboxamide] | 1260 nM |

Second part, the molecule before the results:

| SMILES | IC50 (GST-RipK1(1-375)) | IC50 [1] |
| --- | --- | --- |
| O=C(N[C@H]1CSc2cccn2NC1=O)c1nnc(Cc2ccccc2)[nH]1 [Example 8, (R)-5-Benzyl-N-(4-oxo-2,3,4,5-tetrahydropyrrolo[2,1-b][1,3,4]thiadiazepin-3-yl)-4H-1,2,4-triazole-3-carboxamide] | 25.1 nM | 79.4 nM |
| O=C(NC1CCc2oc3c(c2NC1=O)CCCC3)c1nnc(Cc2ccccc2)[nH]1 (stereo not shown) [Example 10, 5-benzyl-N-(2-oxo-2,3,4,5,7,8,9,10-octahydro-1H-benzofuro[3,2-b]azepin-3-yl)-4H-1,2,4-triazole-3-carboxamide] | 794 nM |  |
| CN1C(=O)[C@@H](NC(=O)c2nnc(Cc3ccccc3)[nH]2)CSc2cccn21 [Example 9, (R)-5-Benzyl-N-(5-methyl-4-oxo-2,3,4,5-tetrahydropyrrolo[2,1-b][1,3,4]thiadiazepin-3-yl)-4H-1,2,4-triazole-3-carboxamide] | 10 nM | 5.01 nM |
| O=C(NC1CCc2[nH]c3ccccc3c2NC1=O)c1nnc(Cc2ccccc2)[nH]1 (stereo not shown) [Example 6, 5-Benzyl-N-(2-oxo-1,2,3,4,5,6-hexahydroazepino[3,2-b]indol-3-yl)-4H-1,2,4-triazole-3-carboxamide] | 39.8 nM | 251 nM |
| Cc1nsc2c1N(C)C(=O)[C@@H](NC(=O)c1nnc(Cc3ccccc3)[nH]1)CN2 [Example 7, (S)-5-Benzyl-N-(3,4-dimethyl-5-oxo-5,6,7,8-tetrahydro-4H-isothiazolo[4,5-b][1,4]diazepin-6-yl)-4H-1,2,4-triazole-3-carboxamide] | 20 nM | 15.8 nM |
